Data from patent publication US9328138B2 (priority 2011, dated 2016).

What was measured:
[1] = target: T1, HCV genotype 1b (BK) NS3 modified enzyme with a R155K mutation (Hepatitis C virus genotype 1b, UniProt P26663, R1181K); experiment: HCV NS3 protease time-resolved fluorescence (TRF) assay, genotype 1b R155K; type: biochemical; conditions: Ki 1b R155K, genotype 1b (BK) NS3 R155K; single value
T1 construct: HCV genotype 1b (BK) NS3 modified enzyme
Outline: (§1)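 Pre-incubation of NS3/NS4A protease with inhibitor for 10 min in pH 7.5 HEPES buffer with 10 mM DTT; 25 nM TRF peptide substrate, hydrolysis 6 h at room temperature. Fluorescence read at ex 340/em 615 nm with 400 μs delay, enzyme level set for S/B 5-20; IC50 by four-parameter fit.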

[2] = target: HCV NS3 protease genotype 3a (3A-1) (Hepatitis C virus genotype 3a, UniProt Q81258); experiment: HCV NS3 protease time-resolved fluorescence (TRF) assay, genotype 3a; type: biochemical; conditions: Ki 3a
Outline: as §1

Compound | Ki [1] [nM] | Ki [2] [nM]
C=C[C@@H]1C[C@]1(NC(=O)[C@@H]1C[C@@H]2CN1C(=O)[C@H](C(C)(C)C)NC(=O)O[C@@H]1CCC[C@H]1CC/C=C/Cc1c(nc3ccccc3c1OCCCN1CCCC1=O)O2)C(=O)NS(=O)(=O)C1(C)CC1 [Example 89, (3aR,7S,10S,12R,21E,24aS)-7-tert-butyl-N-[(1R,2S)-2-ethenyl-1-{[(1-methycyclopropyl)sulfonyl]carbamoyl}cyclopropyl]-5,8-dioxo-19-[3-(2-oxopyrrolidin-1-yl)propoxy]-1,2,3,3a,5,6,7,8,11,12,20,23,24,24a-tetradecahydro-10H-9,12-methano-cyclopenta[18,19][1,10,3,6]dioxa diazacyclononadecino[11,12-b] quinoline-10-carboxamide] | 0.07 | 0.32
C=C[C@@H]1C[C@]1(NC(=O)[C@@H]1C[C@@H]2CN1C(=O)[C@H](C(C)(C)C)NC(=O)O[C@@H]1CCC[C@H]1CC/C=C/Cc1c(nc3ccccc3c1OCCCOC)O2)C(=O)NS(=O)(=O)C1(C)CC1 [Example 90, (3aR,7S,10S,12R,21E,24aS)-7-tert-butyl-N-[(1R,2S)-2-ethenyl-1-{[(1-methylcyclopropyl)sulfonyl]carbamoyl}cyclopropyl]-19-(3-methoxypropoxy)-5,8-dioxo-1,2,3,3a,5,6,7,8,11,12,20,23,24,24a-tetradecahydro-10H-9,12-methanocyclopenta[18,19][1,10,3,6] dioxadiazacyclononadecino [11,12-b]quinoline-10-carboxamide] | 0.15 | 1.6
C=C[C@@H]1C[C@]1(NC(=O)[C@@H]1C[C@@H]2CN1C(=O)[C@H](C(C)(C)C)NC(=O)O[C@@H]1CCC[C@H]1CC/C=C/Cc1c(nc3ccccc3c1OCCCN1CCOCC1)O2)C(=O)NS(=O)(=O)C1(C)CC1 [Example 91, (3aR,7S,10S,12R,21E,24aS)-7-tert-butyl-N-[(1R,2S)-2-ethenyl-1-{[(1-methylcyclopropyl)sulfonyl]carbamoyl}cyclopropyl]-19-[3-(morpholin-4-yl)propoxy]-5,8-dioxo-1,2,3,3a,5,6,7,8,11,12,20,23,24,24a-tetradecahydro-10H-9,12-methanocyclopenta[18,19][1,10,3,6] dioxadiazacyclononadecino[11,12-b] quinoline-10-carboxamide] | 0.16 | 1
C=C[C@@H]1C[C@]1(NC(=O)[C@@H]1C[C@@H]2CN1C(=O)[C@H](C1CCCC1)NC(=O)O[C@@H]1CCC[C@H]1CC/C=C/Cc1c(nc3ccccc3c1OCCCN1CCCC(C)(C)C1)O2)C(=O)NS(=O)(=O)C1CC1 [Example 92, (3aR,7S,10S,12R,21E,24aS)-7-cyclo pentyl-N-{(1R,2S)-1-[(cyclopropylsulfonyl)carbamoyl]-2-ethenylcyclopropyl}-19-[3-(3,3-dimethylpiperidin-1-yl)propoxy]-5,8-dioxo-1,2,3,3a,5,6,7,8,11,12,20,23,24,24a-tetradeca hydro-10H-9,12-methano-cyclopenta[18,19][1,10,3,6]dioxa diazacyclononadecino[11,12-b] quinoline-10-carboxamide] | 1.6 | 19
C=C[C@@H]1C[C@]1(NC(=O)[C@@H]1C[C@@H]2CN1C(=O)[C@H](C1CCCC1)NC(=O)O[C@@H]1CCC[C@H]1CC/C=C/Cc1c(nc3ccccc3c1OC(=O)NC(C)C)O2)C(=O)NS(=O)(=O)C1CC1 [Example 93, (3aR,7S,10S,12R,21E,24aS)-7-cyclopentyl-10-({(1R,2S)-1-[(cyclopropylsulfonyl)carbamoyl]-2-ethenylcyclopropyl}carbamoyl)-5,8-dioxo-1,2,3,3a,5,6,7,8,11,12,20,23,24,24a-tetradecahydro-10H-9,12-methanocyclopenta[18,19][1,10,3,6]dioxadiazacyclononadecino[11,12-b]quinolin-19-yl propan-2-ylcarbamate] | 0.26 | 2.8
C=C[C@@H]1C[C@]1(NC(=O)[C@@H]1C[C@@H]2CN1C(=O)[C@H](C1CCCC1)NC(=O)O[C@@H]1CCC[C@H]1CC/C=C/Cc1c(nc3ccccc3c1OCCCN)O2)C(=O)NS(=O)(=O)C1CC1 [Example 94, (3aR,7S,10S,12R,21E,24aS)-19-(3-aminopropoxy)-7-cyclopentyl-N-{(1R,2S)-1-[(cyclopropylsulfonyl)carbamoyl]-2-ethenylcyclopropyl}-5,8-dioxo-1,2,3,3a,5,6,7,8,11,12,20,23,24,24a-tetradecahydro-10H-9,12-methanocyclopenta[18,19][1,10,3,6]dioxadiazacyclononadecino[11,12-b]quinoline-10-carboxamide] | 0.093 | 0.59
C=C[C@@H]1C[C@]1(NC(=O)[C@@H]1C[C@@H]2CN1C(=O)[C@H](C1CCCC1)NC(=O)O[C@@H]1CCC[C@H]1CC/C=C/Cc1c(nc3ccccc3c1OCCCOP(=O)(O)O)O2)C(=O)NS(=O)(=O)C1CC1 [Example 95, 3-{[(3aR,7S,10S,12R,21E,24aS)-7-cyclopentyl-10-({(1R,2S)-1-[(cyclopropylsulfonyl)carbamoyl]-2-ethenylcyclopropyl}carbamoyl)-5,8-dioxo-1,2,3,3a,5,6,7,8,11,12,20,23,24,24a-tetradecahydro-10H-9,12-methanocyclopenta[18,19][1,10,3,6]dioxadiazacyclononadecino[11,12-b]quinolin-19-yl]oxy}propyl dihydrogen phosphate] | 0.18 | 1
C=C[C@@H]1C[C@]1(NC(=O)[C@@H]1C[C@@H]2CN1C(=O)[C@H](C(C)(C)C)NC(=O)O[C@@H]1CCC[C@H]1CCCCCc1c(nc3ccccc3c1OCCCN1CCCCC1)O2)C(=O)NS(=O)(=O)C1(COC)CC1 [Example 96, (3aR,7S,10S,12R,24aR)-7-tert-butyl-N-[(1R,2S)-2-ethenyl-1-({[1-(methoxymethyl)cyclopropyl]sulfonyl}carbamoyl)cyclopropyl]-5,8-dioxo-19-[3-(piperidin-1-yl)propoxy]-1,2,3,3a,5,6,7,8,11,12,20,21,22,23,24,24a-hexadecahydro-10H-9,12-methanocyclopenta[18,19][1,10,3,6]dioxadiazacyclononadecino[11,12-b]quinoline-10-carboxamide] | 0.15 | 0.78
C=C[C@@H]1C[C@]1(NC(=O)[C@@H]1C[C@@H]2CN1C(=O)[C@H](C(C)(C)C)NC(=O)O[C@@H]1CCC[C@H]1CCCCCc1c(nc3ccccc3c1OCCCN(C)C)O2)C(=O)NS(=O)(=O)C1(COC)CC1 [Example 97, (3aR,7S,10S,12R,24aR)-7-tert-butyl-19-[3-(dimethyl-amino)propoxy]-N-[(1R,2S)-2-ethenyl-1-({[1-(methoxymethyl)cyclopropyl]sulfonyl}carbamoyl)cyclopropyl]-5,8-dioxo-1,2,3,3a,5,6,7,8,11,12,20,21,22,23, 24,24a-hexadecahydro-10H-9,12-methanocyclopenta[18,19] [1,10,3,6]dioxadiaza-cyclononadecino [11,12,-b]quinoline-10-carboxamide] | 0.08 | 73
C=C[C@@H]1C[C@]1(NC(=O)[C@@H]1C[C@@H]2CN1C(=O)[C@H](C(C)(C)C)NC(=O)O[C@@H]1CCC[C@H]1CCCCCc1c(nc3ccccc3c1OCCCN1CCOCC1)O2)C(=O)NS(=O)(=O)C1CC1 [Example 98, (3aR,S,10S,12R,24aR)-7-tert-butyl-N-{(1R,2S)-1-[(cyclopropyl-sulfonyl)carbamoyl]-2-ethenylcyclopropyl}-19-[3-(morpholin-4-yl)propoxy]-5,8-dioxo-1,2,3,3a,5,6,7,8,11,12,20,21,22,23, 24,24a-hexadecahydro-10H-9,12-methanocyclopenta [18,19][1,10,3,6]dioxadiazacyclo-nonadecino[11,12-b]quinoline-10-carboxamide] | 0.18 | 2.9
C=C[C@@H]1C[C@]1(NC(=O)[C@@H]1C[C@@H]2CN1C(=O)[C@H](C(C)(C)C)NC(=O)O[C@]1(C)C[C@H]1CCCCCc1c(nc3ccccc3c1OCCN1CCOCC1)O2)C(=O)NS(=O)(=O)C1(COC)CC1 [Example 99, (1aR,5S,8S,10R,22aR)-5-tert-butyl-N-[(1R,2S)-2-ethenyl-1-({[1-(methoxymethyl)cyclopropyl]sulfonyl}carbamoyl)cyclopropyl]-1a-methyl-17-[2-(morpholin-4-yl)ethoxy]-3,6-dioxo-1,1a, 3,4,5,6,9,10,18,19,20,21,22,22a-tetradecahydro-8H-7,10-methano-cyclopropa[18,19][1,10,3,6] dioxadiazacyclononadecino [11,12-b]quinoline-8-carboxamide] | 0.28 | 2.8
C=C[C@@H]1C[C@]1(NC(=O)[C@@H]1C[C@@H]2CN1C(=O)[C@H](C(C)(C)C)NC(=O)O[C@]1(C)C[C@H]1CCCCCc1c(nc3ccccc3c1OCCN1CCOCC1)O2)C(=O)NS(=O)(=O)C1CC1 [Example 100, (1aR,5S,8S,10R,22aR)-5-tert-butyl-N-{(1R,2S)-1-[(cyclopropylsulfonyl)carbamoyl]-2-ethenylcyclopropyl}-1a-methyl-17-[2-(morpholin-4-yl)ethoxy]-3,6-dioxo-1,1a,3,4,5,6,9, 10,18,19,20,21,22,22a-tetradecahydro-8H-7,10-methanocyclopropa[18,19] [1,10,3,6]dioxadiazacyclonona decino[11,12-b]quinoline-8-carboxamide] | 0.24 | 2
C=C[C@@H]1C[C@]1(NC(=O)[C@@H]1C[C@@H]2CN1C(=O)[C@H](C(C)(C)C)NC(=O)O[C@]1(C)C[C@H]1CCCCCc1c(nc3ccccc3c1OCCN1CCOCC1)O2)C(=O)NS(=O)(=O)C1(C)CC1 [Example 101, (1aR,5S,8S,10R,22aR)-5-tert-butyl-N-[(1R,2S)-2-ethenyl-1-{[(1-methylcyclopropyl)sulfonyl]carbamoyl}cyclopropyl]-1a-methyl-17-[2-(morpholin-4-yl)ethoxy]-3,6-dioxo-1,1,a, 3,4,5,6,9,10,18,19,20,21,22,22a-tetradecahydro-8H-7,10-methano-cyclopropa[18,19][1,10,3,6]dioxa diazacyclononadecino[11,12-b] quinoline-8-carboxamide] | 0.09 | 0.96
